{
  "source": "ChEMBL document CHEMBL1153236",
  "about": "“Non-aromatic A-ring replacement in the triaryl bis-sulfone CB2 receptor inhibitors” (Bioorg Med Chem Lett, 2010)",
  "data": [
    {"organism": "Rattus norvegicus", "details": "in vivo, 6 h", "units": {"AUC": "µM"}, "values": [
      {"compound": "O=S(=O)(c1ccccn1)c1ccc(Cl)cc1S(=O)(=O)N1CCC2(CC1)CC2NS(=O)(=O)C(F)(F)F", "note": "(stereo not drawn)", "AUC": 6.1},
      {"compound": "O=S(=O)(c1ccccn1)c1ccc(OC(F)(F)F)cc1S(=O)(=O)N1CCC2(CC1)CC2NS(=O)(=O)C(F)(F)F", "note": "(stereo not drawn)", "AUC": 7.3},
      {"compound": "O=S(=O)(c1ccccc1F)c1cc(Cl)ccc1S(=O)(=O)N1CCC(CNS(=O)(=O)C(F)(F)F)CC1", "AUC": 1.9}
    ]}
  ]
}
